In the assay the test system is L1210 leukemia ip in BDF1 mice, survival T/C. As to the kind of experiment: NCI In Vivo Anticancer Drug Screen. Data for tumor model L1210 Leukemia (intraperitoneal) in B6D2F1 (BDF1) mice. The note with it: endpoint: mean survival time, higher = longer survival. In a few lines:
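Transplantable tumor model; survival measured in treated vs vehicle control mice. Value = treated/control.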

The mark [1] stands for this setting: dose: 100.0 mg/kg/injection, schedule: Q01DX009 (ip), vehicle: Klucel (hydroxypropylcellulose) (HPC).
[2] abbreviates: dose: 100.0 mg/kg/injection, schedule: Q04DX003 (ip), vehicle: Klucel (hydroxypropylcellulose) (HPC).
Setting [3] is: dose: 200.0 mg/kg/injection, schedule: Q04DX003 (ip), vehicle: Klucel (hydroxypropylcellulose) (HPC).
The mark [4] stands for this setting: dose: 400.0 mg/kg/injection, schedule: Q04DX003 (ip), vehicle: Klucel (hydroxypropylcellulose) (HPC).
The mark [5] stands for this setting: dose: 50.0 mg/kg/injection, schedule: Q01DX009 (ip), vehicle: saline with Tween-80.
[6] abbreviates: dose: 100.0 mg/kg/injection, schedule: Q01DX009 (ip), vehicle: saline with Tween-80.
The mark [7] stands for this setting: dose: 200.0 mg/kg/injection, schedule: Q01DX009 (ip), vehicle: saline with Tween-80.
[8] abbreviates: dose: 100.0 mg/kg/injection, schedule: Q01DX001 (ip), vehicle: carboxymethylcellulose (CMC).
Where [9] appears, read: dose: 200.0 mg/kg/injection, schedule: Q01DX001 (ip), vehicle: carboxymethylcellulose (CMC).
Where [10] appears, read: dose: 400.0 mg/kg/injection, schedule: Q01DX001 (ip), vehicle: carboxymethylcellulose (CMC).
The mark [11] stands for this setting: dose: 100.0 mg/kg/injection, schedule: Q04DX002 (ip), vehicle: Klucel (hydroxypropylcellulose) (HPC).

Several values for one entry are separate records, joined by “and”; a condition that tells them apart may be missing. Equal values may be shown once. Inconclusive results and toxic doses are left out.

For `OCCCNc1nc2c(Cl)cc(Cl)cc2c2ccccc12`, the T/C by setting is: under setting [1], 104 % of control; under setting [2], 107 % of control; (dose: 200.0 mg/kg/injection, schedule: Q01DX009 (ip), vehicle: Klucel (hydroxypropylcellulose) (HPC)) 94 % of control; under setting [3], 108 % of control; under setting [4], 95 % of control.
`CC(=O)c1cccc2c1cc(Cl)c1ccccc12`: the T/C was 100 % of control (dose: 55.0 mg/kg/injection, schedule: Q01DX Z (ip), vehicle: methylcellulose (MC)); 93 % of control (dose: 83.0 mg/kg/injection, schedule: Q01DX Z (ip), vehicle: methylcellulose (MC)); 93 % of control (dose: 125.0 mg/kg/injection, schedule: Q01DX Z (ip), vehicle: methylcellulose (MC)).
For `Nc1nc2ncc(CNc3ccc(C(=O)NC(CCC(=O)O)C(=O)O)cc3)nc2c(=O)[nH]1` (centres undefined), the T/C (dose: 1.6 mg/kg/injection, schedule: Q01DX009 (ip), vehicle: saline with Tween-80) was 93 % of control and 98 % of control; the T/C (dose: 3.2 mg/kg/injection, schedule: Q01DX009 (ip), vehicle: saline with Tween-80) is 101 % of control and 109 % of control; the T/C (dose: 6.3 mg/kg/injection, schedule: Q01DX009 (ip), vehicle: saline with Tween-80) is 93 % of control and 94 % of control; the T/C (dose: 6.95 mg/kg/injection, schedule: Q01DX Z (ip), vehicle: carboxymethylcellulose (CMC)) was 96 % of control; the T/C (dose: 12.5 mg/kg/injection, schedule: Q01DX009 (ip), vehicle: saline with Tween-80) is 101 % of control and 102 % of control; the T/C (dose: 12.5 mg/kg/injection, schedule: Q04DX002 (ip), vehicle: saline with Tween-80) was 97 % of control and 100 % of control. Besides, the T/C reads like this: (dose: 13.9 mg/kg/injection, schedule: Q01DX Z (ip), vehicle: carboxymethylcellulose (CMC)) 103 % of control; (dose: 25.0 mg/kg/injection, schedule: Q01DX009 (ip), vehicle: saline with Tween-80) 93 % of control and 100 % of control; (dose: 25.0 mg/kg/injection, schedule: Q04DX002 (ip), vehicle: saline with Tween-80) 97 % of control and 91 % of control; (dose: 27.8 mg/kg/injection, schedule: Q01DX Z (ip), vehicle: carboxymethylcellulose (CMC)) 101 % of control; under setting [5], 98 % of control and 111 % of control; (dose: 50.0 mg/kg/injection, schedule: Q04DX002 (ip), vehicle: saline with Tween-80) 99 % of control and 100 % of control. For the same molecule, the T/C reads like this: (dose: 55.6 mg/kg/injection, schedule: Q01DX Z (ip), vehicle: carboxymethylcellulose (CMC)) 97 % of control; (dose: 100.0 mg/kg/injection, schedule: Q04DX002 (ip), vehicle: saline with Tween-80) 99 % of control and 102 % of control; (dose: 200.0 mg/kg/injection, schedule: Q04DX002 (ip), vehicle: saline with Tween-80) 103 % of control.
Take `Cc1cc(=O)[nH]c2nc3ccccc3n12`: the T/C was 108 % of control (dose: 100.0 mg/kg/injection, schedule: Q01DX001 (ip), vehicle: Klucel (hydroxypropylcellulose) (HPC)); 96 % of control under setting [2]; 95 % of control (dose: 200.0 mg/kg/injection, schedule: Q01DX001 (ip), vehicle: Klucel (hydroxypropylcellulose) (HPC)); 96 % of control under setting [3]; 111 % of control (dose: 400.0 mg/kg/injection, schedule: Q01DX001 (ip), vehicle: Klucel (hydroxypropylcellulose) (HPC)); 104 % of control under setting [4].
For `COc1ccc(C(=Cc2ccccc2Br)c2ccc(OC)cc2)cc1`, the T/C under setting [6] is 102 % of control; the T/C (dose: 100.0 mg/kg/injection, schedule: Q04DX003 (ip), vehicle: saline with Tween-80) is 106 % of control; the T/C under setting [7] is 98 % of control; the T/C (dose: 200.0 mg/kg/injection, schedule: Q04DX003 (ip), vehicle: saline with Tween-80) is 98 % of control; the T/C (dose: 400.0 mg/kg/injection, schedule: Q01DX009 (ip), vehicle: saline with Tween-80) is 93 % of control; the T/C (dose: 400.0 mg/kg/injection, schedule: Q04DX003 (ip), vehicle: saline with Tween-80) was 92 % of control.
Turning to `CNC(=O)Nc1cccc2ccccc12`, the T/C runs as follows: under setting [8], 95 % of control; (dose: 100.0 mg/kg/injection, schedule: Q01DX009 (ip), vehicle: carboxymethylcellulose (CMC)) 93 % of control and 89 % of control; (dose: 100.0 mg/kg/injection, schedule: Q04DX002 (ip), vehicle: carboxymethylcellulose (CMC)) 106 % of control; (dose: 100.0 mg/kg/injection, schedule: Q04DX003 (ip), vehicle: carboxymethylcellulose (CMC)) 97 % of control; under setting [9], 101 % of control; (dose: 200.0 mg/kg/injection, schedule: Q01DX009 (ip), vehicle: carboxymethylcellulose (CMC)) 98 % of control and 101 % of control. Moreover, the T/C was 100 % of control (dose: 200.0 mg/kg/injection, schedule: Q04DX002 (ip), vehicle: carboxymethylcellulose (CMC)); 96 % of control (dose: 200.0 mg/kg/injection, schedule: Q04DX003 (ip), vehicle: carboxymethylcellulose (CMC)); 97 % of control under setting [10]; 93 % of control and 86 % of control (dose: 400.0 mg/kg/injection, schedule: Q01DX009 (ip), vehicle: carboxymethylcellulose (CMC)); 99 % of control (dose: 400.0 mg/kg/injection, schedule: Q04DX002 (ip), vehicle: carboxymethylcellulose (CMC)); 97 % of control (dose: 400.0 mg/kg/injection, schedule: Q04DX003 (ip), vehicle: carboxymethylcellulose (CMC)).
With `CCCCC(=O)N/N=C/c1cc(OCC)c(OCC)cc1OCC`, the T/C was 96 % of control under setting [8], 98 % of control under setting [9] and 91 % of control under setting [10].
For `Cc1cc(N(CCOS(C)(=O)=O)CCOS(C)(=O)=O)ccc1C=Nc1ccccc1C(=O)O`, the T/C by setting is: (dose: 2.5 mg/kg/injection, schedule: Q04DX003 (ip), vehicle: Klucel (hydroxypropylcellulose) (HPC)) 124 % of control; (dose: 5.0 mg/kg/injection, schedule: Q04DX003 (ip), vehicle: Klucel (hydroxypropylcellulose) (HPC)) 113 % of control; (dose: 10.0 mg/kg/injection, schedule: Q04DX003 (ip), vehicle: Klucel (hydroxypropylcellulose) (HPC)) 109 % of control; (dose: 40.0 mg/kg/injection, schedule: Q04DX003 (ip), vehicle: Klucel (hydroxypropylcellulose) (HPC)) 153 % of control.
Take `NCC12CC3CC(CC(C3)C1)C2`: the T/C reads like this: (dose: 25.0 mg/kg/injection, schedule: Q01DX009 (ip), vehicle: Klucel (hydroxypropylcellulose) (HPC)) 107 % of control; (dose: 25.0 mg/kg/injection, schedule: Q04DX002 (ip), vehicle: Klucel (hydroxypropylcellulose) (HPC)) 111 % of control; (dose: 50.0 mg/kg/injection, schedule: Q01DX009 (ip), vehicle: Klucel (hydroxypropylcellulose) (HPC)) 93 % of control; (dose: 50.0 mg/kg/injection, schedule: Q04DX002 (ip), vehicle: Klucel (hydroxypropylcellulose) (HPC)) 107 % of control; under setting [1], 90 % of control; under setting [11], 96 % of control and 104 % of control.
For `O=[N+]([O-])c1cc(S(=O)(=O)c2ccc(S)c([N+](=O)[O-])c2)ccc1S`, the T/C is, setting by setting: under setting [11], 89 % of control; (dose: 200.0 mg/kg/injection, schedule: Q04DX002 (ip), vehicle: Klucel (hydroxypropylcellulose) (HPC)) 92 % of control; (dose: 400.0 mg/kg/injection, schedule: Q04DX002 (ip), vehicle: Klucel (hydroxypropylcellulose) (HPC)) 92 % of control.
Turning to `CC(=O)Nc1cc(N(CCOS(C)(=O)=O)CCOS(C)(=O)=O)ccc1N=O`, the T/C runs as follows: (dose: 0.05 mg/kg/injection, schedule: Q01DX015 (ip), vehicle: saline) 114 % of control; (dose: 0.1 mg/kg/injection, schedule: Q01DX015 (ip), vehicle: saline) 123 % of control; (dose: 0.2 mg/kg/injection, schedule: Q01DX015 (ip), vehicle: saline) 114 % of control; (dose: 0.4 mg/kg/injection, schedule: Q01DX015 (ip), vehicle: saline) 114 % of control; (dose: 1.0 mg/kg/injection, schedule: Q01DX015 (ip), vehicle: saline) 121 % of control; (dose: 1.7 mg/kg/injection, schedule: Q01DX015 (ip), vehicle: saline) 119 % of control. Besides, the T/C (dose: 7.5 mg/kg/injection, schedule: Q01DX001 (ip), vehicle: saline) was 113 % of control and the T/C (dose: 10.0 mg/kg/injection, schedule: Q01DX001 (ip), vehicle: saline) was 124 % of control.
`O=C(CC1(O)C(=O)Nc2ccccc21)C12CC3CC(CC(C3)C1)C2` (centres undefined): the T/C was 104 % of control under setting [5], 101 % of control under setting [6] and 96 % of control under setting [7].

The values are drawn from PubChem BioAssay AID248 (DTP/NCI, 2004).
